Measurements published in PubChem BioAssay AID330 (DTP/NCI, 2004).
Values joined by “and” are separate entries in the source; they are usually repeats but may differ in a detail not shown here. Equal entries are not always repeated. Inconclusive results and toxic doses are left out. Bridge positions count the residues as written; N and C are the ends. Peptide text beside a SMILES is read from it. I, II: the chains in the order shown. * marks the point of attachment. Quinoxaline2carbonyl = O=C(c1cnc2ccccc2n1)*

Test system: P388 leukemia ip, CD2F1 mice, survival T/C
Experiment: NCI In Vivo Anticancer Drug Screen. Data for tumor model P388 Leukemia (intraperitoneal) in CD2F1 (CDF1) mice
Conditions: endpoint: median survival time, higher = longer survival
In short: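 Mice carrying the transplanted tumor received test compound or vehicle. Survival was recorded in each group, and the value is the treated-group measurement divided by that of the vehicle-treated control group.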

[1] = dose: 60.0 mg/kg/injection, schedule: Q01DX005 (ip), vehicle: saline with Tween-80
[2] = dose: 120.0 mg/kg/injection, schedule: Q01DX005 (ip), vehicle: saline with Tween-80
[3] = dose: 240.0 mg/kg/injection, schedule: Q01DX005 (ip), vehicle: saline with Tween-80
[4] = dose: 12.5 mg/kg/injection, schedule: Q01DX009 (ip), vehicle: saline with Tween-80
[5] = dose: 25.0 mg/kg/injection, schedule: Q01DX009 (ip), vehicle: saline with Tween-80
[6] = dose: 50.0 mg/kg/injection, schedule: Q01DX009 (ip), vehicle: saline with Tween-80
[7] = dose: 100.0 mg/kg/injection, schedule: Q01DX009 (ip), vehicle: saline with Tween-80
[8] = dose: 200.0 mg/kg/injection, schedule: Q01DX009 (ip), vehicle: saline with Tween-80
[9] = dose: 50.0 mg/kg/injection, schedule: Q01DX009 (ip), vehicle: other

C[C@]12C=CC(=O)C=C1CC[C@@H]1[C@@H]2C(=O)C[C@@]2(C)[C@H]1CC[C@]2(O)C(=O)CO
T/C (dose: 25.0 mg/kg/injection, schedule: Q01DX009 (ip), vehicle: saline): 106 % of control | T/C (dose: 30.0 mg/kg/injection, schedule: Q04DX002 (sc), vehicle: Klucel (hydroxypropylcellulose) (HPC)): 100 % of control and 95 % of control | T/C (dose: 44.0 mg/kg/injection, schedule: Q04DX002 (sc), vehicle: Klucel (hydroxypropylcellulose) (HPC)): 100 % of control | T/C (dose: 45.0 mg/kg/injection, schedule: Q04DX002 (sc), vehicle: Klucel (hydroxypropylcellulose) (HPC)): 104 % of control | T/C (dose: 50.0 mg/kg/injection, schedule: Q01DX001 (oral), vehicle: saline): 93 % of control | T/C (dose: 50.0 mg/kg/injection, schedule: Q01DX005 (sc), vehicle: Klucel (hydroxypropylcellulose) (HPC)): 111 % of control | T/C (dose: 50.0 mg/kg/injection, schedule: Q01DX009 (ip), vehicle: saline): 106 % of control | T/C (dose: 50.0 mg/kg/injection, schedule: Q01DX009 (oral), vehicle: saline): 100 % of control | T/C (dose: 67.0 mg/kg/injection, schedule: Q04DX002 (sc), vehicle: Klucel (hydroxypropylcellulose) (HPC)): 100 % of control and 104 % of control | T/C (dose: 100.0 mg/kg/injection, schedule: Q01DX001 (oral), vehicle: saline): 100 % of control | T/C (dose: 100.0 mg/kg/injection, schedule: Q01DX005 (sc), vehicle: Klucel (hydroxypropylcellulose) (HPC)): 111 % of control | T/C (dose: 100.0 mg/kg/injection, schedule: Q01DX009 (ip), vehicle: saline): 106 % of control | T/C (dose: 100.0 mg/kg/injection, schedule: Q01DX009 (oral), vehicle: saline): 114 % of control | T/C (dose: 100.0 mg/kg/injection, schedule: Q04DX002 (sc), vehicle: Klucel (hydroxypropylcellulose) (HPC)): 98 % of control and 107 % of control | T/C (dose: 125.0 mg/kg/injection, schedule: Q01DX001 (ip), vehicle: steriod suspending solution): 98 % of control and 95 % of control | T/C (dose: 133.0 mg/kg/injection, schedule: Q01DX001 (sc), vehicle: Klucel (hydroxypropylcellulose) (HPC)): 100 % of control | T/C (dose: 200.0 mg/kg/injection, schedule: Q01DX001 (oral), vehicle: saline): 100 % of control | T/C (dose: 200.0 mg/kg/injection, schedule: Q01DX001 (sc), vehicle: Klucel (hydroxypropylcellulose) (HPC)): 100 % of control | T/C (dose: 200.0 mg/kg/injection, schedule: Q01DX005 (sc), vehicle: Klucel (hydroxypropylcellulose) (HPC)): 115 % of control | T/C (dose: 200.0 mg/kg/injection, schedule: Q01DX009 (ip), vehicle: saline): 106 % of control | T/C (dose: 200.0 mg/kg/injection, schedule: Q01DX009 (oral), vehicle: saline): 100 % of control | T/C (dose: 250.0 mg/kg/injection, schedule: Q01DX001 (ip), vehicle: steriod suspending solution): 91 % of control and 95 % of control | T/C (dose: 300.0 mg/kg/injection, schedule: Q01DX001 (sc), vehicle: Klucel (hydroxypropylcellulose) (HPC)): 107 % of control | T/C (dose: 400.0 mg/kg/injection, schedule: Q01DX001 (oral), vehicle: saline): 87 % of control | T/C (dose: 400.0 mg/kg/injection, schedule: Q01DX005 (sc), vehicle: Klucel (hydroxypropylcellulose) (HPC)): 115 % of control | T/C (dose: 400.0 mg/kg/injection, schedule: Q01DX009 (ip), vehicle: saline): 106 % of control | T/C (dose: 400.0 mg/kg/injection, schedule: Q01DX009 (oral), vehicle: saline): 114 % of control | T/C (dose: 450.0 mg/kg/injection, schedule: Q01DX001 (sc), vehicle: Klucel (hydroxypropylcellulose) (HPC)): 108 % of control | T/C (dose: 500.0 mg/kg/injection, schedule: Q01DX001 (ip), vehicle: steriod suspending solution): 91 % of control and 94 % of control | T/C (dose: 800.0 mg/kg/injection, schedule: Q01DX001 (oral), vehicle: saline): 100 % of control | T/C (dose: 800.0 mg/kg/injection, schedule: Q01DX005 (ip), vehicle: Klucel (hydroxypropylcellulose) (HPC)): 108 % of control | T/C (dose: 800.0 mg/kg/injection, schedule: Q01DX005 (sc), vehicle: Klucel (hydroxypropylcellulose) (HPC)): 113 % of control | T/C (dose: 800.0 mg/kg/injection, schedule: Q01DX009 (oral), vehicle: saline): 107 % of control | T/C (dose: 1000.0 mg/kg/injection, schedule: Q01DX001 (ip), vehicle: steriod suspending solution): 34 % of control | T/C (dose: 1600.0 mg/kg/injection, schedule: Q01DX005 (ip), vehicle: Klucel (hydroxypropylcellulose) (HPC)): 116 % of control | T/C (dose: 1600.0 mg/kg/injection, schedule: Q01DX005 (sc), vehicle: Klucel (hydroxypropylcellulose) (HPC)): 100 % of control | T/C (dose: 6400.0 mg/kg/injection, schedule: Q01DX005 (sc), vehicle: Klucel (hydroxypropylcellulose) (HPC)): 102 % of control

CC1NC(=O)C(NC(=O)c2cnc3ccccc3n2)COC(=O)C(C(C)C)NC(=O)C2CSSCC(NC1=O)C(=O)NC(C(C)C)C(=O)OCC(NC(=O)c1cnc3ccccc3n1)C(=O)NC(C)C(=O)N2 (configuration not stated) (I: Quinoxaline2carbonyl-SACV / II: Quinoxaline2carbonyl-SACV; ester I:1-II:C, I:C-II:1; disulfide I:3-II:3; configuration not given here)
T/C (dose: 1.25 mg/kg/injection, schedule: Q01DX005 (ip), vehicle: Klucel (hydroxypropylcellulose) (HPC)): 96 % of control | T/C (dose: 2.5 mg/kg/injection, schedule: Q01DX005 (ip), vehicle: Klucel (hydroxypropylcellulose) (HPC)): 98 % of control | T/C (dose: 5.0 mg/kg/injection, schedule: Q01DX005 (ip), vehicle: Klucel (hydroxypropylcellulose) (HPC)): 95 % of control | T/C (dose: 10.0 mg/kg/injection, schedule: Q01DX005 (ip), vehicle: Klucel (hydroxypropylcellulose) (HPC)): 90 % of control | T/C (dose: 20.0 mg/kg/injection, schedule: Q01DX005 (ip), vehicle: Klucel (hydroxypropylcellulose) (HPC)): 95 % of control | T/C (dose: 40.0 mg/kg/injection, schedule: Q01DX005 (ip), vehicle: Klucel (hydroxypropylcellulose) (HPC)): 93 % of control | T/C (dose: 60.0 mg/kg/injection, schedule: Q01DX005 (ip), vehicle: Klucel (hydroxypropylcellulose) (HPC)): 95 % of control

O=c1[nH]c(N[N+](=O)[O-])nc(-c2ccccc2)c1Br
T/C [1]: 98 % of control | T/C [2]: 100 % of control | T/C [3]: 99 % of control

CCOC(=O)C1=C(C)NC(=O)NC1c1ccccc1 (configuration not stated)
T/C (dose: 50.0 mg/kg/injection, schedule: Q01DX009 (ip), vehicle: Klucel (hydroxypropylcellulose) (HPC)): 100 % of control | T/C (dose: 100.0 mg/kg/injection, schedule: Q01DX009 (ip), vehicle: Klucel (hydroxypropylcellulose) (HPC)): 107 % of control | T/C (dose: 200.0 mg/kg/injection, schedule: Q01DX009 (ip), vehicle: Klucel (hydroxypropylcellulose) (HPC)): 113 % of control | T/C (dose: 400.0 mg/kg/injection, schedule: Q01DX009 (ip), vehicle: Klucel (hydroxypropylcellulose) (HPC)): 109 % of control

C#CC1(OC(=O)Nc2cccc(Cl)c2)CCCCC1
T/C [4]: 91 % of control and 97 % of control | T/C [5]: 98 % of control and 110 % of control | T/C [6]: 102 % of control and 105 % of control and 90 % of control | T/C [7]: 106 % of control and 108 % of control | T/C [8]: 97 % of control | T/C (dose: 400.0 mg/kg/injection, schedule: Q01DX009 (ip), vehicle: saline with Tween-80): 94 % of control

CC1(C)OI(O)c2ccccc21
T/C (dose: 100.0 mg/kg/injection, schedule: Q04DX002 (ip), vehicle: Klucel (hydroxypropylcellulose) (HPC)): 100 % of control | T/C (dose: 200.0 mg/kg/injection, schedule: Q04DX002 (ip), vehicle: Klucel (hydroxypropylcellulose) (HPC)): 100 % of control

CCC(C)B1N(c2ccccc2)N=NN1C(C)(C)C (configuration not stated)
T/C [1]: 97 % of control | T/C [2]: 97 % of control | T/C [3]: 105 % of control

O=C(N1CCC(CCN2CCCC2)CC1)C(O)(c1ccccc1)c1ccccc1
T/C (dose: 25.0 mg/kg/injection, schedule: Q04DX002 (ip), vehicle: saline): 107 % of control | T/C (dose: 50.0 mg/kg/injection, schedule: Q04DX002 (ip), vehicle: saline): 107 % of control | T/C (dose: 100.0 mg/kg/injection, schedule: Q04DX002 (ip), vehicle: saline): 106 % of control and 97 % of control

CCOC(=O)/C=C/CI
T/C (dose: 25.0 mg/kg/injection, schedule: Q01DX009 (ip), vehicle: other): 105 % of control and 98 % of control | T/C [9]: 114 % of control and 120 % of control and 97 % of control | T/C (dose: 100.0 mg/kg/injection, schedule: Q01DX009 (ip), vehicle: other): 117 % of control and 97 % of control

Cc1cc2sccc2cn1
T/C [5]: 100 % of control | T/C [6]: 100 % of control

O=C(O)CSCC(=O)Nc1ccccc1Cl
T/C [1]: 95 % of control | T/C [2]: 91 % of control | T/C [3]: 100 % of control

CCOC(=O)C(Cc1ccc(O)cc1)NCc1ccc(N(CCCl)CCCl)cc1 (configuration not stated)
T/C [4]: 109 % of control | T/C [5]: 113 % of control | T/C [7]: 160 % of control

OCc1ccc2c(c1)CCC2
T/C [9]: 100 % of control

CCCCCN(CCCCC)CCCNc1c2c(nc3ccc(OC)cc13)CCCC2
T/C (dose: 3.12 mg/kg/injection, schedule: Q01DX005 (ip), vehicle: saline): 94 % of control | T/C (dose: 6.25 mg/kg/injection, schedule: Q01DX005 (ip), vehicle: saline): 103 % of control | T/C (dose: 12.5 mg/kg/injection, schedule: Q01DX005 (ip), vehicle: saline): 99 % of control

CN(C)CCN(C)C
T/C [7]: 100 % of control | T/C [8]: 95 % of control
